Series [1] concerns the target T1, Isocitrate dehydrogenase [NADP] cytoplasmic (Homo sapiens, UniProt O75874, R132C). Put plainly: Inhibition of IDH1 R132C mutant in human HCT116 cells assessed as reduction in 2-HG levels after 24 hrs by RapidFire high-throughput mass spectrometry assay. The class given is cell-based.
Series [2] concerns the target T1, Isocitrate dehydrogenase [NADP] cytoplasmic. Briefly: Inhibition of human Myc-DDK-tagged IDH1 R132C mutant expressed in human U87MG cells assessed as reduction in 2-HG levels after 24 hrs by RapidFire high-throughput mass spectrometry assay. The class given is cell-based.
Series [3] addresses Isocitrate dehydrogenase [NADP] cytoplasmic (Homo sapiens, UniProt O75874, R132L). Briefly: Inhibition of human Myc-DDK-tagged IDH1 R132L mutant expressed in human U87MG cells assessed as reduction in 2-HG levels after 24 hrs by RapidFire high-throughput mass spectrometry assay. The class given is cell-based.
The target of series [4] is Isocitrate dehydrogenase [NADP] cytoplasmic (Homo sapiens, UniProt O75874, R132S). Briefly: Inhibition of human Myc-DDK-tagged IDH1 R132S mutant expressed in human U87MG cells assessed as reduction in 2-HG levels after 24 hrs by RapidFire high-throughput mass spectrometry assay. The series is classed as cell-based.
Sequence of Isocitrate dehydrogenase [NADP] cytoplasmic (Homo sapiens, UniProt O75874, R132S) (O75874 2-414 R132S limits assumed): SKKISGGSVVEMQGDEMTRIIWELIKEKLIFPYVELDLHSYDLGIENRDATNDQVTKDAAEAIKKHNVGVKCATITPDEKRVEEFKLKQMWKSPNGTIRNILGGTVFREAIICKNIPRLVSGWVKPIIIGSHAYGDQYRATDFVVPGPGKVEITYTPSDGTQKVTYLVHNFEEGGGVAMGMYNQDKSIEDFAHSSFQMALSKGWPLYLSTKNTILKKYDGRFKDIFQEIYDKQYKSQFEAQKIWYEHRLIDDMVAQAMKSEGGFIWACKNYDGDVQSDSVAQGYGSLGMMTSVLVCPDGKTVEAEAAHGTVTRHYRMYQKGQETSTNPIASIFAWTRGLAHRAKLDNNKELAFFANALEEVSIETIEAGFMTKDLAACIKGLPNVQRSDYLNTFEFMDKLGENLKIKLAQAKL
A short description of series [5]: Apparent permeability of the compound across apical side to basolateral side in human Caco2 cells. The class given is ADME, cell-based. The following applies: Caco-2. (Caco-2 cells form a polarised layer with tight junctions and transporters.)
Series [6] deals with ATP-dependent translocase ABCB1 (Homo sapiens, UniProt P08183). Briefly: Substrate activity at Pgp (unknown origin) assessed as net efflux ratio by measuring ratio of efflux ratio in MDCK cells harboring MDR1 (unknown origin) to efflux ratio in MDCK cells. The series is classed as ADME, cell-based.
Sequence of ATP-dependent translocase ABCB1 (P08183 whole entry): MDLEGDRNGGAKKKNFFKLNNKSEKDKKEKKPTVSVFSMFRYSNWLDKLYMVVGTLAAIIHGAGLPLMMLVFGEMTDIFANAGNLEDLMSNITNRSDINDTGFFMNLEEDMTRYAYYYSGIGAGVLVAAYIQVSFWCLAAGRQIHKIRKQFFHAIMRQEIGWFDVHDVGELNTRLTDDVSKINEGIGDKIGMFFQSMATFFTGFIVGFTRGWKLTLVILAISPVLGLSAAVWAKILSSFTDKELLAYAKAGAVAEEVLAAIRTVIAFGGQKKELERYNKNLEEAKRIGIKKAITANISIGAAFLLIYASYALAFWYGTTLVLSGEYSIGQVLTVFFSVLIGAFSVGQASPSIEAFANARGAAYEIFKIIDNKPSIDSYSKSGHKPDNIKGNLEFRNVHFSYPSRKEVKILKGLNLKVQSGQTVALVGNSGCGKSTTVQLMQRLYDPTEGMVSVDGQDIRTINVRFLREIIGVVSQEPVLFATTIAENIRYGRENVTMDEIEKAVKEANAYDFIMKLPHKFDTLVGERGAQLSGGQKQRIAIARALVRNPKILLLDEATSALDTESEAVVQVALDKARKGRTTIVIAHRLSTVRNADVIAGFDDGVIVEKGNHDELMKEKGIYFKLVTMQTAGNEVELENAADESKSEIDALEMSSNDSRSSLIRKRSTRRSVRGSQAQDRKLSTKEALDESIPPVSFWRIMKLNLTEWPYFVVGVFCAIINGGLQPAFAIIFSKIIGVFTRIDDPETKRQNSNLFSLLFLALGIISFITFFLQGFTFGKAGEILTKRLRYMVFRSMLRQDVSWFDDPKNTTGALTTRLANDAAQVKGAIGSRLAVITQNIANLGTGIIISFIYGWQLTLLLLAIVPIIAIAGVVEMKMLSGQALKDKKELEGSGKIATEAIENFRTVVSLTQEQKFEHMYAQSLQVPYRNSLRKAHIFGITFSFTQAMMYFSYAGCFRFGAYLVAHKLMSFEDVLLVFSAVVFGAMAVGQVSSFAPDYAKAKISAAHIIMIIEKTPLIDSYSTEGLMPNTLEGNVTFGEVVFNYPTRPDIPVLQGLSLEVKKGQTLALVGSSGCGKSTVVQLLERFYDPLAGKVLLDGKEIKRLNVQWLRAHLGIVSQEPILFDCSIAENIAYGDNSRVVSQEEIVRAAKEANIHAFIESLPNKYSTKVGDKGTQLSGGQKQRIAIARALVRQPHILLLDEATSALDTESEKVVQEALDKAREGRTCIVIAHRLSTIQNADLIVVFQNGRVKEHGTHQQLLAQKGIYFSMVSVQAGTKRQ
Series [7] in a line: Protein binding in human plasma. The class given is ADME, cell-free. The following applies: read-out: PPB (converted).
The nature of series [8]: Protein binding in rat plasma. The class given is ADME, cell-free. Conditions: read-out: PPB (converted); call rule not given here.
Series [9] can be described thus: Half-life in human hepatocytes. The series is classed as ADME, cell-based, Hepatocyte.
Series [10] can be described thus: Intrinsic clearance in human hepatocytes. The class given is ADME, cell-based, Hepatocyte. Conditions: read-out: CLH.
The nature of series [11]: Total AUC (infinity) in rat at 1 mg/kg, iv or 5 mg/kg, po. Conditions: in vivo. The series is classed as ADME, organism-based.
Series [12] in a line: fAUC (infinity) in mouse at 1 mg/kg, iv or 5 mg/kg, po. The class given is ADME, organism-based. The following applies: in vivo.
The nature of series [13]: Clearance in dog at 0.5 mg/kg, iv. The series is classed as ADME, organism-based, Canis lupus familiaris. The following applies: in vivo.
The nature of series [14]: Free drug concentration in tumor of human HCT116 harboring R132C mutant xenografted in po dosed BALB/c nude mouse administered at 12 hrs intervals and measured after 4 to 24 hrs post last dose. The class given is ADME, organism-based, Neoplasm. The following applies: in vivo. (In xenograft studies the graft and the host belong to different species.)
The subject of a further series is Mus musculus. The series is classed as functional. Conditions: BALB/c, HCT-116, po.
The target in series [15] is Isocitrate dehydrogenase [NADP], mitochondrial (Homo sapiens, UniProt P48735, R172K). Briefly: Inhibition of IDH2 R172K mutant (unknown origin).
Sequence of Isocitrate dehydrogenase [NADP], mitochondrial (P48735 40-452 R172K limits assumed): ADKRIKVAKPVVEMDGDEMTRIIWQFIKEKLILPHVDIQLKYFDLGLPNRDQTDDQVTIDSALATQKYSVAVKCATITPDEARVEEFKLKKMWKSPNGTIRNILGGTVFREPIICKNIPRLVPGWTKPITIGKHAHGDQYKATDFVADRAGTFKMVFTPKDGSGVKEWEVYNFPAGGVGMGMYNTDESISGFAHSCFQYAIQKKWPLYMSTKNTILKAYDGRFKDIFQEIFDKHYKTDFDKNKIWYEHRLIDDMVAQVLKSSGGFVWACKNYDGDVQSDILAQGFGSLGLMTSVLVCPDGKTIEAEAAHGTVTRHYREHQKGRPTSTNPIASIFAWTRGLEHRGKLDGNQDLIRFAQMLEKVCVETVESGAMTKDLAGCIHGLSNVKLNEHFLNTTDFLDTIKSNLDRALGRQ
Another series concerns the target CYP2D6 (Homo sapiens, UniProt P10635). Put plainly: Inhibition of CYP2D6 (unknown origin) at 10 uM relative to control. The series is classed as ADME.
A further series deals with CYP1A2 (Homo sapiens, UniProt P05177). Briefly: Inhibition of CYP1A2 (unknown origin) at 10 uM relative to control. The class given is ADME.
Sequence of CYP1A2 (P05177 whole entry): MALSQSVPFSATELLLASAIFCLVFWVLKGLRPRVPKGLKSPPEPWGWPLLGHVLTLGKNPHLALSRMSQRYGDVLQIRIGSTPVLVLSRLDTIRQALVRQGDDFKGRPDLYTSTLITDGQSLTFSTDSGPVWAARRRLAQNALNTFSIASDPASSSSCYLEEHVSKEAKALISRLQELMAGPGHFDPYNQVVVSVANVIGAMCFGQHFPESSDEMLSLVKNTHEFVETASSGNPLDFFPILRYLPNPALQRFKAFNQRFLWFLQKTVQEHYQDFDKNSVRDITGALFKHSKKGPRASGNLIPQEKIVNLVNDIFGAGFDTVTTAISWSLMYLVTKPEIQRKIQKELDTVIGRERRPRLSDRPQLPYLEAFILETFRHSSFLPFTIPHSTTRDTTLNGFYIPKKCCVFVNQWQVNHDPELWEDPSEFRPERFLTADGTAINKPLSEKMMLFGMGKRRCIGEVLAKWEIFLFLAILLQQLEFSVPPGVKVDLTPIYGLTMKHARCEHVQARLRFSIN
For series [16], the target named is T2, Cytochrome P450 3A4 (Homo sapiens, UniProt P08684). Briefly: Time dependent inhibition of CYP3A4 (unknown origin) at <5 uM using testosterone as substrate. The series is classed as ADME.
T2 sequence (P08684 whole entry): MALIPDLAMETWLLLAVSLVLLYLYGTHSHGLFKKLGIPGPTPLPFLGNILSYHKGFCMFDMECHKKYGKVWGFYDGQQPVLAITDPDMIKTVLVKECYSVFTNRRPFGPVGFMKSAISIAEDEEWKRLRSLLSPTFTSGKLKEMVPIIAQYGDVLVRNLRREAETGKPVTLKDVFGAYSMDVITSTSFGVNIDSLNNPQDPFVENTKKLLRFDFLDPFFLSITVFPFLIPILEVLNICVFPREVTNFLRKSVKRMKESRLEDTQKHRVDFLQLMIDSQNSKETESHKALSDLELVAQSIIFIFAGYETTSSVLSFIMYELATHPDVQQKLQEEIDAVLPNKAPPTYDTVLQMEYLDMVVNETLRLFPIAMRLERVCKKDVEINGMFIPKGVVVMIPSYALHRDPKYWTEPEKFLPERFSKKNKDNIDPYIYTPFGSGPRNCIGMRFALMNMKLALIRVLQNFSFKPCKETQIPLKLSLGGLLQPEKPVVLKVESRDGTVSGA
Series [17] has as its target T2, Cytochrome P450 3A4. Put plainly: Time dependent inhibition of CYP3A4 (unknown origin) at <5 uM pre-incubated for 30 mins followed by testosterone substrate addition in presence of NADPH. The class given is ADME.
The next series deals with PXR (Homo sapiens, UniProt O75469). Briefly: Activation of PXR (unknown origin) stably expressed in human HepG2 cells at 10 uM relative to rifampicin. The series is classed as ADME, cell-based. Conditions: HepG2 cells stably expressing PXR, read-out: Activity.
The target in series [18] is Voltage-gated inwardly rectifying potassium channel KCNH2 (Homo sapiens, UniProt Q12809). Briefly: Inhibition of human ERG by patch clamp method. Background: Patch clamp records ionic current or voltage across a cell membrane.
Sequence of Voltage-gated inwardly rectifying potassium channel KCNH2 (Q12809 whole entry): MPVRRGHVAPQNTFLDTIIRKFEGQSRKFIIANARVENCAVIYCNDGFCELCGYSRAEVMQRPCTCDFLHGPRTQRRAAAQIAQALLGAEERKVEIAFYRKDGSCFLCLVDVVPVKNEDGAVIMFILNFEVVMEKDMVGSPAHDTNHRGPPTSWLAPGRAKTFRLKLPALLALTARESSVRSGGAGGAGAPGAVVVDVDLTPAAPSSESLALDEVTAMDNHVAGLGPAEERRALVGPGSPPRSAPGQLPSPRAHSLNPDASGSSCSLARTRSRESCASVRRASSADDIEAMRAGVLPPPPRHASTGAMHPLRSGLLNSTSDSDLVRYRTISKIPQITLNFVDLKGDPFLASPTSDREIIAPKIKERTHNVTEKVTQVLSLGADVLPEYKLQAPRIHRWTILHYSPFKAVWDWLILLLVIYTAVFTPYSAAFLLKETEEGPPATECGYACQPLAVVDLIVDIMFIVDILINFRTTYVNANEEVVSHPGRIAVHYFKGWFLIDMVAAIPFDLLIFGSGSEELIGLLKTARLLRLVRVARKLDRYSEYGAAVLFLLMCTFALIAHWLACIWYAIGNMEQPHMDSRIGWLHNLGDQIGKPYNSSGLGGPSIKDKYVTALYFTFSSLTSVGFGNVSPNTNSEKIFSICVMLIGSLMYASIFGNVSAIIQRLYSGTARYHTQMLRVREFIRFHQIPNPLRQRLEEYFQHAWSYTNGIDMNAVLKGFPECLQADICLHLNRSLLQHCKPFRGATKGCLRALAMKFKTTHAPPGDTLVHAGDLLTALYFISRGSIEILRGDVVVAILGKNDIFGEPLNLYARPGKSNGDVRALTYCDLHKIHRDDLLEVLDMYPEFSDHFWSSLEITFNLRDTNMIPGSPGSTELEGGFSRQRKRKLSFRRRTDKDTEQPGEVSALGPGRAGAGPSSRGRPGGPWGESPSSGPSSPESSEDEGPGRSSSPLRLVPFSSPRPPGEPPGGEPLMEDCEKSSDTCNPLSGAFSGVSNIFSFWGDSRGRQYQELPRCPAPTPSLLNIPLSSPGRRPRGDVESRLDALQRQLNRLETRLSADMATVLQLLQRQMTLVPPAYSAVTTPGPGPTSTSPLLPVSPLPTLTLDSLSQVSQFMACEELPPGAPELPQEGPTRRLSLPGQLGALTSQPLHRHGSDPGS

By IC50 is commonly meant the point on the concentration scale where inhibition reaches its midpoint. What is called Papp A→B is how fast a substance crosses the layer from the apical side. Usually half-life stands for how long it takes for the measured level to halve. For orientation: AUC(0-inf) means total exposure, with the tail of the curve extrapolated. Lower therefore signals low exposure. One may read the clearance as a measure of how efficiently the substance is removed, as volume per time. A word on the inhibition in vivo: it is the share of the control response that was lost under treatment. A higher inhibition in vivo goes with a response far below the control. As usually defined, the inhibition is the share of the control response that was lost under treatment.

Molecules are shown by their SMILES.

T1 sequence (O75874 2-414 R132C limits assumed): as the sequence (O75874 2-414 R132S limits assumed) above, with S131C counted along it
Sequence of Isocitrate dehydrogenase [NADP] cytoplasmic (Homo sapiens, UniProt O75874, R132L) (O75874 2-414 R132L limits assumed): as the sequence (O75874 2-414 R132S limits assumed) above, with S131L counted along it
Sequence of CYP2D6 (P10635 whole entry): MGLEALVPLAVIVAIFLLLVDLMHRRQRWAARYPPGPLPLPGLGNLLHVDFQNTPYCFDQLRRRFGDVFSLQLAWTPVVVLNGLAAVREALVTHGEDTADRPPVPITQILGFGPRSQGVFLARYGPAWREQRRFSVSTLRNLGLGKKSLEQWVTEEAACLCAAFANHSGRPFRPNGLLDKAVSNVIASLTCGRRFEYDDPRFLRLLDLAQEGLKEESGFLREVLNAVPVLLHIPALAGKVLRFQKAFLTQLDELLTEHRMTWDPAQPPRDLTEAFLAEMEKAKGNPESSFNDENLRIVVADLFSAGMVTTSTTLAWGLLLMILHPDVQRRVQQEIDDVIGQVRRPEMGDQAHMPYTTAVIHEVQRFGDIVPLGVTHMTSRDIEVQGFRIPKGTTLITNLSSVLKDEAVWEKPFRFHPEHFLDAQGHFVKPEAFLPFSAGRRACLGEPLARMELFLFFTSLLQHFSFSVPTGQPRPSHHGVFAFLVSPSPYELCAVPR

As to `COc1nc(N[C@@H](C)c2cc3cc(Cl)ccc3[nH]c2=O)ncc1C#N`, the 50% inhibitory concentration (IC50) in series [1] came to 0.233 µM; in [2], 0.13 µM; in [3] it was 0.06 µM; in series [4], 1.49 µM; in series [15], 33.8 µM; in series [18], 3.2 µM. For the same compound, the Papp A→B in [5] worked out at 86.6 nm/s. Also, the Ratio in series [6] was 1.89. For the same compound, the fraction unbound in [7] was 0.019; in series [8] it was 0.0203. For the same compound, the half-life in [9] was 4.32 h. Moreover, the CLint scaled in series [10] stood at 0.819 L/h/kg. The compound further showed an AUC(0-inf) in series [11] of 22.6 µM·h. This compound also displayed a fAUC in series [12] of 2.06 µM·h. In series [13], this compound returned a clearance of 0.462 L/h/kg. The “Drug uptake(free)” value in series [14] was “Dose-dependent effect”. For the same compound, in the series with Mus musculus, the inhibition in vivo at 12.5 mg/kg is more than 90%. Also, the inhibition at 10 µM at CYP2D6 is 10.2%; against CYP1A2, 35.4%. For the same compound, the TDI result at Cytochrome P450 3A4 [16] and on Cytochrome P450 3A4 [17] was “Not Active” each time. Moreover, the activity at 10 µM on PXR came out at 15%. The Ratio IC50 in the series listed under Homo sapiens turned out to be 200.

Values taken from ChEMBL document CHEMBL4359816, “Discovery and Optimization of Quinolinone Derivatives as Potent, Selective, and Orally Bioavailable Mutant Isocitrate Dehydrogenase 1 (mIDH1) Inhibitors” (J Med Chem, 2019).
